Test results from patent publication US20260284016A1, “COMBINATIONS AND METHODS FOR ENHANCING CHECKPOINT INHIBITOR THERAPIES IN CANCER TREATMENT” (PURDUE RESEARCH FOUNDATION, priority 2004, published 2026).

Key:
[1] = system: M2-induced THP-1 macrophages; experiment: Reprogramming of M2-polarized THP-1 macrophages, marker mRNA by qPCR; format: cell-based, human; conditions: 2 hours with compound, qPCR
Procedure: THP-1 cells were seeded into 96-well plates at a density of 60,000 cells/well. Cells were differentiated into unpolarized macrophages by 48 hours incubation with 200 nM PMA followed by 24 hours incubation in fresh RPMI medium. […] Cultures were maintained at 37° C., in a humidified 5% CO2 incubator.
Total RNA was isolated from 1×10^5-2×10^5 macrophages using a Quick-RNA™ MicroPrep kit (Zymo Research, Irvine, CA) according to the manufacturer-recommended protocol. The RNA samples were then reverse-transcribed into cDNA using high-capacity cDNA reverse transcription kits (Applied Biosystems, Foster City, CA; #4368814), qPCR analyses were performed using the iTaq™ Universal SYBR Green SuperMix (Bio-Rad Laboratories GmbH, Hercules, CA; #1725121), iCycler thermocycler, and iCycler iQ 3.0 software (Bio-Rad Laboratories GmbH, Hercules, CA) to track the expression of markers characteristic of macrophage polarization states, IL-6, CXCL10, IFNα, IFN-γ and CD86 were used as markers for an M1 phenotype, while CCL18. CD206, CD163 and Arg1 were employed as markers for the M2 phenotype, IL-1β, PDGFβ, MMP9 and TIMP 3 were measured as indicators of an anti-inflammatory phenotype. IRAK-4 was used as an indicator of TLR7 stimulation. To control for specificity of the amplification products, a melting curve analysis was performed. […] Each sample was analyzed independently in triplicate for each marker.
In both data sets, the cells were harvested for gene analysis by qPCR.
Primarily, human monocytic (THP-1) cells were induced to the M2-like phenotype using the methods and materials previously described. In particular, THP-1 cells were seeded into 96-well plates at a density of 60,000 cells/well. Cells were differentiated into unpolarized macrophages by 48 h incubation with 200 nM PMA followed by 24 hours incubation in fresh RPMI medium. The resulting macrophages were polarized to an M2-like phenotype by incubation with […] IL-4, 20 ng/ml […], and 5 ng/mL IL-6 for 48h. Cultures were maintained at 37° C. in a humidified 5% CO2 incubator.
In addition to the nonconjugated TLR7 agonist, conjugated compounds of the present disclosure were likewise evaluated. Human THP-1 cells were induced to macrophages having the M2-like phenotype per the methods set forth herein (e.g., using 20 ng/mL IL-4, 20 ng/mL IL-13, 5 ng/mL IL-6), then reprogrammed with different nM concentrations of various compounds of the present disclosure for 2 hours; namely, a nonconjugated (free drug) TLR7 agonist compound having formula I and/or II (data shown collectively as Compound 3A), a folate-conjugated TLR7 agonist compound having formula XV (having a releasable linker) (e.g., Compound 3B), a folate-conjugated TLR7 agonist compound having formula XVII (having a non-releasable linker) (e.g., Compound 3C), and a folate-conjugated TLR7 agonist compound having formula XVI (having a non-releasable linker) (e.g., Compound 3D). The cells were subsequently harvested for gene analysis by qPCR and the relative expression of CCL18 (FIG. 14A), CD206 (FIG. 14B), and IL-1β (FIG. 14C) analyzed.

[2] = system: M2-induced THP-1 macrophages; experiment: Secreted CCL18 and IL-1β in THP-1 supernatants by ELISA; format: cell-based, human; conditions: low concentration range (0.1-10 nM), ELISA
Procedure: FIGS. 6A-6D show graphical data representative of various marker levels measured from M2-induced THP-1 macrophages treated with different concentrations of drugs for 48 hours (FIGS. 6A and 6B) or for 2 hours, then displaced with fresh medium and cultured for the remaining 46 hours (FIGS. 6C and 6D). In both cases, cell supernatants were collected and secreted CCL18 protein and IL-1β was detected by ELISA.
Further, to ensure that the above mRNA analyses accurately reflected the levels of anti-inflammatory cytokines produced by IL-4, IL-6 plus IL-13 stimulated THP-1 cells, the concentrations of CCL18 and IL-1β polypeptides in the THP-1 supernatants were quantitated by ELISA assay.
CCL18 and IL-1β were quantified in induced THP-1 cell supernatants using a human DuoSet ELISA Development System (R&D Systems Europe, Abingdon, UK: #DY394-05) and an IL-1 beta Human ELISA Kit (Thermo Fisher Scientific, Waltham, MA; #BMS224-2) as described by manufactures. BALF samples were analyzed for mouse IFN-γ using ELISA MAX™ Deluxe (Biolegend, San Diego, CA; #430804).
Additionally, cell supernatants were collected and secreted CCL18 protein was detected by ELISA.

[3] = system: FRβ-expressing macrophages; experiment: In vivo folate imaging with OTL38, resected organs; parameters: species or system C57BL/6 mice
Procedure: (§1) To evaluate if anti-inflammatory lung macrophages in these mice can be specifically targeted with folate-linked drugs, 10 days after the instillation, 10 nmol (for in vivo imaging) or 100 nmol (for in vivo labeling) of a folate-linked, near infrared fluorescent dye (OTL38) with or without 200-fold excess of FA-glucosamine (a competitor of OTL38) was injected into the tail veins of BM-treated mice and the dye uptake in the major organs was evaluated.
(§2) Finally, for the in vivo folate imaging studies, major organs (heart, lung, spleen, liver, small intestine, large intestine, and kidney) were resected and imaged using an AMI live imager (Spectral Instruments Imaging, Tucson, AZ). For in vivo folate receptor labeling studies, lungs of the mice were harvested immediately following euthanasia, digested with a lung dissociation kit (Miltenyi Biotec, Bergisch Gladbach, DE; #130-098-427) as described by gentleMACS Octo Dissociator with Heathers (Miltenyi Biotec, Bergisch Gladbach, DE; #130-096-427) as described by manual and filtered through a 70 μm cell strainer (Miltenyi Biotec, Bergisch Gladbach, DE: #130-098-462). Cells collected in the filtrate were depleted of erythrocytes by ammonium sulfate lysis, washed 2× in cold PBS and labeled for 30 min on ice with antibodies to desired macrophage markers (FITC-CD11b, Biolegend, San Diego, CA; #101205; FE-F4/80. Biolegend. San Diego, CA: #123109). Labeled macrophages were then washed twice in PBS, stained with 7AAD (viability stain) for 15 min and analyzed by flow cytometry using BD Accuri C6 Software (BD Biosciences, San Jose, CA).
FIGS. 7C and 7D show FRβ IHC staining of human IPF lung tissue (FIG. 7C) and healthy human lung tissue (FIG. 7D). […] After 2 hours, mice were sacrificed prior to analysis. […] For in vivo folate receptor labeling studies, lungs of the mice were harvested immediately following euthanasia, digested and then labeled with antibodies to desired macrophages markers (FITC-CD11b, PE-F4/80) and 7AAD (live/dead staining) and analyzed by flow cytometry.

FRβ positive macrophages = experiment: In vivo folate receptor labeling with OTL38, flow cytometry of digested lungs; parameters: species or system C57BL/6 mice; conditions: fibrotic mice
Procedure: as §1
as §2, with “Cells collected in the filtrate were depleted of erythrocytes by ammonium sulfate lysis, washed 2× in cold PBS and labeled for 30 min on ice with antibodies to desired macrophage markers (FITC-CD11b, Biolegend, San Diego, CA; #101205; FE-F4/80. Biolegend. San Diego, CA: #123109).” left out, “CA). […]” for “CA).”

BM-induced mice = system: BM-induced mice
Procedure: Studies were also performed to determine if macrophages in pulmonary fibrotic lungs might be specifically targeted with folate-linked drugs in vivo. […] (The BM model is widely regarded to be helpful in terms of enabling mechanistic investigations relevant to fibrogenesis in an in vivo context.)
More specifically, eight-week-old C57BL6 male mice from Charles River (average weight 22 g to 25 g) were housed under pathogen-free conditions at room temperature (22° C.) under a 12 hours light-dark cycle. Mice were placed on a folate deficient chow (Envigo Teklad Global Rat Food Pellets) for 1 week prior to the BM or PBS instillation. Fresh water and folate-deficient diet were freely available. All animal procedures were approved by the Purdue Animal Care and Use Committee in accordance with National Institute of Health guidelines.
Thereafter, the mice were anesthetized with ketamine/xylazine and the necks of the mice were shaved using hair remover lotion and then sterilized with 70% alcohol. A small incision was made on the neck to visualize the trachea. Mice were positioned at a 75-degree angle and injected intratracheally with 100 μL sterile PBS or BM (Cayman Chemicals, Ann Arbor, MI; #13877) dissolved in PBS (0.75 mg/kg) using a 1 cc syringe with 26 G needle. Body weights were monitored every other day throughout the experiment.
Lobes of the right lung collected above were weighed, placed in a pressure-tight vial (Supelco Inc., Bellefonte, PA; #27003), and hydrolyzed with 6N HCl (10 ml/g, v/w) in a sand bath at 120° C., for 3.5 hours. The hydrolyzed solution was cooled at 4° C., for 15 min and transferred to a 1.5 ml Eppendorf tube prior to centrifugation at 12,000 rcf for 15 min at 4° C. Supernatant was carefully collected, aliquoted and used for hydroxyproline (HYP) analysis.
For the subsequent HYP analysis, 10 μl of sample was transferred into a 96-well plate and neutralized with 10 μl of 5.3 M sodium hydroxide solution. Isopropanol ([…]) was then added to each well followed by 20 μl of oxidation buffer and the mixture was incubated on a shaker at room temperature for 5 min. Analytical reagent (260 μl) was added, and the plate was incubated on a shaker at room temperature for 30 seconds and incubated immediately at 60° C., for 25 min. The absorbance was measured at 560 nm (A560) within 15 min. All reagents were prepared according to a previously reported protocol.
For histological analysis of the lung sections, fixed lungs (see above) were embedded in paraffin, sectioned and stained with hematoxylin-eosin (H&E), Masson's trichrome or F3 (anti-mouse FRβ antibody). Tissue sections were examined in a blinded manner by a licensed pathologist. More than 90×10^6 cells were quantified per section using Aperio-Image Scope (Leica Biosystems, Wetzlar, DE).
For this, BM-treated mice were intravenously injected every other day beginning on day 10 with either vehicle (3% DMSO in PBS) or Compound 1B (see FIG. 8A). […] In BM-induced experimental pulmonary fibrosis in mice, inflammation is known to persist for about 9-10 days after BM installation. Because, inflammation to fibrosis switch happens in this model approximately day 9 to day 14, and anti-inflammatory markers start appearing at about day 10, dosing began on day 10 (FIG. 8A).
Two doses were given every other day till day 21. The individual doses on a day are separated by 6 hours to prevent any “tolerance” to TLR agonists. Mice were then sacrificed on day 21 and subjected immediately to bronchoalveolar lavage followed by resection of the lungs for immunohistochemistry and quantitation of collagen and hydroxyproline.

Which results are given for `Nc1nc2ncc(CNc3ccc(C(=O)N[C@@H](CCC(=O)NCCOCCOCCOCCOCC4CCCN(CCNc5ccc(Cn6c(=O)[nH]c7c(N)nc(C(F)(F)F)cc76)cn5)C4)C(=O)O)cc3)nc2c(=O)[nH]1` (stereo partly drawn) [Compound 3D]?
CCL18 relative expression [1]: reduced; CD206 relative expression [1]: reduced; IL-1β relative expression [1]: reduced; reduction of anti-inflammatory markers relative to the other compounds [1]: most effective; secretion of CCL18 protein [2]: downregulated

For OTL38, which “OTL38 accumulation in organs” value ([3]; BM-treated mice, day 10, 10 nmol tail vein, 2 h) is on record?
The value was “pronounced accumulation in the fibrotic lungs”.

What about the “lung accumulation under competition” value ([3]; BM-treated mice, with 200-fold excess folate-glucosamine) of the same compound?
The value was “nearly quantitative blockade of lung accumulation”.

And the “OTL38 fluorescence in organs” value ([3]; healthy mice, 10 nmol tail vein, 2 h)?
The value was “only observed in the kidneys of healthy mice”.

And the “macrophage-like cells with folate-targeted dye retention” value (FRβ positive macrophages; 100 nmol OTL38)?
The value was “about 22%”.

And the “folate-dye retention under competition” value (FRβ positive macrophages; 100 nmol OTL38 with 200-fold excess folate-glucosamine)?
Its value is “blocked essentially all folate-dye retention”.

How did the CCL18 relative expression [1] turn out when `Nc1nc2ncc(CNc3ccc(C(=O)NC(CCC(=O)N[C@@H](CSSCCOC(=O)OCC4CCCN(CCNc5ccc(Cn6c(=O)[nH]c7c(N)nc(C(F)(F)F)cc76)cn5)C4)C(=O)O)C(=O)O)cc3)nc2c(=O)[nH]1` (stereo partly drawn) [Compound 3B] was run?
The CCL18 relative expression was “reduced”.

And the CD206 relative expression [1]?
The CD206 relative expression was “reduced”.

And the IL-1β relative expression [1]?
Its IL-1β relative expression is “reduced”.

And the “secretion of CCL18 protein” value [2]?
Its value is “downregulated”.

How did the CCL18 relative expression [1] turn out when `Nc1nc2ncc(CNc3ccc(C(=O)N[C@@H](CCC(=O)NCCOCCOCCOCCOCCOCCOCCOCCOCCOCCOCCOCCOCCOCC4CCCN(CCNc5ccc(Cn6c(=O)[nH]c7c(N)nc(C(F)(F)F)cc76)cn5)C4)C(=O)O)cc3)nc2c(=O)[nH]1` (stereo partly drawn) [Compound 3C] was run?
The CCL18 relative expression was “reduced”.

What about the CD206 relative expression [1] of the same compound?
Its CD206 relative expression is “reduced”.

And the IL-1β relative expression [1]?
The IL-1β relative expression was “reduced”.

What about the “reduction of anti-inflammatory markers relative to the other compounds” value [1] of the same compound?
Its value is “most effective”.

What about the “secretion of CCL18 protein” value [2] of the same compound?
Its value is “downregulated”.

What about the “benefit to the subject mice” value (BM-induced mice; 3 nmol dosage) of the same compound?
Its value is “did not show measurable benefit”.

What about the “hydroxyproline (HP)” value (BM-induced mice; 10 nmol dosage) of the same compound?
Its value is “decreasing”.

What about the “number of BALF cells” value (BM-induced mice; 10 nmol dosage) of the same compound?
The value was “decreasing”.

And the survival rates (BM-induced mice; 10 nmol dosage)?
The survival rates was “increased the survival rates”.

For `Nc1nc(C(F)(F)F)cc2c1[nH]c(=O)n2Cc1ccc(NCCN2CCCC(CO)C2)nc1` (stereo not drawn) [Compound 3A], which “secretion of CCL18 protein” value [2] is on record?
The value was “downregulated”.
